According to patent US20200291350A1, “HEPATOCYTE CONSTRUCT AND METHOD FOR PRODUCING THE SAME” (NIHON KOHDEN CORPORATION, priority 2019, published 2020):

What was measured:
Type in all cases: cell-based
[1] = test system: mouse hepatocyte/NHDF cell sheet; experiment: Effect of added agent on ballooning of mouse hepatocytes in PMH/NHDF hepatocyte construct (H&E staining); details: metformin 500 μM added on day 1; mouse hepatocyte/NHDF cell sheet day 8
Protocol: (§1) At pre-determined time points, cell sheet samples were washed by pre-warmed PBS twice and fixed in 4% paraformaldehyde at room temperature for 1 h. Fixed cell sheets were embedded in paraffin, sliced into 4 μm sections and deparaffinized for standard histological staining with hematoxylin and eosin (HE). For immunostainings of cytokeratin 8+18 (CK8/18), sections were treated with Dako proteinase K (Agilent, Santa Clara, Calif., US) for antigen retrieval, incubated in Dako REAL peroxidase-blocking solution (Agilent) to quench endogenous peroxidase activity, and then blocked in Blocking One Histo (Nacalai Tesque, Kyoto, Japan). After that, the sections were incubated with mouse anti-human CK8/18 at 25-fold dilution (Abeam, Cambridge, UK) followed by incubation with horseradish […] donkey anti-mouse IgG H&L (Abeam). The sections were dyed with Dako Liquid DAB+Substrate Chromogen System (Agilent) and the nuclei were stained with hematoxylin. Finally, the sections were mounted, dried and imaged with a light microscope (Nikon).
Primary mouse hepatocytes (PMH) were obtained in the same manner as in Example 3.
As NHDFs, NHDFs used in Example 1 were used.
Primary mouse hepatocytes (PMH)/NHDF co-culture and production of a hepatocyte construct were performed in the same manner as in Example 1 except that PMHs were used in place of the above-mentioned PHHs. […]

PHH/NHDF cell sheet = experiment: Effect of added agent on ballooning of human hepatocytes in PHH/NHDF hepatocyte construct (H&E staining); details: metformin 500 μM added on day 1; PHH/NHDF cell sheet on day 11 or day 4
Protocol: as §1
As PHHs and NHDFs, PHHs and NHDFs used in Example 1 were used.
Primary human hepatocytes (PHH)/NHDF co-culture and production of a hepatocyte construct were performed in the same manner as in Example 1 described above. […]

[2] = test system: mouse hepatocyte/NHDF cell sheet; experiment: Hepatocellular ballooning in mouse hepatocyte/NHDF cell sheet made with mitomycin C-treated NHDFs (H&E staining); details: NHDFs treated with mitomycin C 6 μg/mL for 2.5 hours before co-culture with PMHs; cell sheet day 8; vs untreated NHDFs
Protocol: as §1
Primary mouse hepatocytes (PMH) were isolated from the liver of a mouse by a modified two-step collagenase perfusion method and purified by a 45% percoll density gradient centrifugation method. The viability of PMHs was 90%.
As NHDFs, NHDFs used in Example 1 were used. […]

SMILES | hepatocellular ballooning [1] | hepatocellular ballooning (PHH/NHDF cell sheet) | hepatocellular ballooning [2]
CN(C)C(=N)N=C(N)N [metformin] | suppressed | suppressed | 
CO[C@@]12[C@H](COC(N)=O)C3=C(C(=O)C(C)=C(N)C3=O)N1C[C@@H]1N[C@@H]12 [mitomycin C] |  |  | suppressed
